# Measurements: patent US9248202B2, “Two-photon probe for detecting copper(II) ion and quantitative estimation of copper(II) ion in human tissue using the same” (Korea University Research and Business Foundation, priority 2014, dated 2016)
# Tests used:
# [1] = Absorption and fluorescence spectra, quantum yield, energy transfer; format: physicochemical; conditions: for φ (fluorescence quantum yield): uncertainty ± 15%; for λmax^abs: one-photon absorption; for λmax^t1: one-photon emission
# Protocol: Absorption spectra were recorded using the Hewlett-Packard 8453 diode array spectrophotometer and fluorescence spectra were measured using the Amico-Bowman series 2 luminescence spectrometer a 1 cm standard quartz cell. The fluorescence quantum yield was determined using coumarin 307 and rhodamine B as references according to the literature method (J. N. Demas, G. A. Crosby, J. Phys. Chem. 1971, 75, 991).
# (hereinafter, ‘ACCu2’), a compound of [Chemical Formula 12] (hereinafter, ‘FL’) and a compound of [Chemical Formula 13] (hereinafter, ‘IR’) in 1,4-dioxane, DMF, ethanol, EtOH/HEPES (9:1) and HEPES buffer ([HEPES]=20 mM, pH 7.0). Excitation wavelength was 420 nm. The solubility of ACCu2 in HEPES buffer ([HEPES]=20 mM, pH 7.0) as determined by the fluorescence method described in the literature (Kim, H. M.; Choo, H. J.; Jung, S. Y.; Ko, Y. G.; Park, W. H.; Jeon, S. J.; Kim, C. H.; Joo, T. H.; Cho, B. R. Chem Bio Chem 2007, 8, 553) was 8.0 μM, which was sufficient to stain cells.
# To assess the origin of the spectral changes, the energy transfer efficiency (ETE) was calculated using Equation (1). The ETE was 93.4%.
# In Equation (1), AIR and AIR′ are the absorbances of the IR moiety and IR, respectively, and FIR and FIR′ are the emission intensities of the IR moiety and IR, respectively, upon excitation at 373 nm.
# The antenna effect in the one-photon (OP) (or TP) mode was 3.0 (or 3.1). The antenna effect was calculated by dividing the area of emission from the FL moiety upon excitation of the IR moiety at 373 nm (or 750 nm in the TP mode) by that collected from the direct excitation of FL at 461 nm (or 880 nm in the […]).
# [2] = pH dependence of Ired/Iblue ratio; format: physicochemical; conditions: 3 μM ACCu2, 200 μM copper(II) ion, excitation 365 nm
# Source text: The excitation wavelength was 365 nm. […] The increase in the Ired/Iblue ratio at pH<6 can be attributed to the protonation of the nitrogen atom in the pyridine moiety as shown in [Chemical Formula 19]. On the other hand, the increase in the Ired/Iblue ratio at pH>7.0 can be attributed to the decreased copper(II) ion concentration due to the formation of Cu(OH)2. This outcome is different from that reported for the existing one-photon probe.
# HeLa cells [3] = test: Cell viability, CCK-8 kit; format: cell-based, human; conditions: various ACCu2 concentrations
# Protocol: HeLa human cervical carcinoma cells were acquired from the ATCC (Manassas, Va., USA). The cells were cultured in DMEM (WelGene, Inc., Seoul, Korea) supplemented with heat-inactivated 10% FBS (WelGene), penicillin (100 units/mL) and streptomycin ([…]), All the cell lines were maintained in a humidified atmosphere of 5% CO2 and 95% air at 37° C. Two days before imaging, the cells were moved and plated onto glass-bottomed dishes (MatTek), For labeling, the growth medium was removed and replaced with FBS-free DMEM. The cells were incubated with 3 μM ACCu2 for 20 minutes at 37° C., washed 3 times with FBS-free DMEM and imaged.
# The viability of HeLa cells with the ACCu2 concentration was measured under the incubation condition using the CCK-8 kit (Cell Counting Kit-8, Dojindo, Japan) (FIG. 7). […] Accordingly, it can be seen that the copper(II) ion concentration in living cells can be measured with minimum interference from cytotoxicity.
# HeLa cells [4] = test: Photostability in labeled HeLa cells; format: cell-based, human; design: dose or concentration left out as unconfirmed; conditions: ACCu2-labeled HeLa cells, fs-pulses for 60 minutes
# Protocol: The photostability of ACCu2 was determined by monitoring the change in TP excited fluorescence (TPEF) intensity from ACCu2 ([…])-labeled HeLa cells. […] This confirms that ACCu2 according to the present disclosure has high photostability and can measure the copper(II) ion concentration in living cells with minimum interference.
# human colon tissue = test: Quantitative estimation of copper(II) ion in human colon tissue by TPM; conditions: for average Ired/Iblue ratio: 20 μM ACCu2
# Source text: Colon slices were obtained from outpatients who underwent elective colonoscopies at the Korea University Medical Center Anam Hospital. The volunteers were recruited to participate in the experiment, which was approved by the hospital ethics committee, and all the participating patients provided informed consents. The patients who had known or suspected bleeding disorders, an international normalized ratio of prothrombin time exceeding 1.4 a platelet count of <100,000 or who had taken aspirin within the previous 5 days were excluded.
# During the colonoscopy examination, tissues were obtained from malignant lesions, adenomas and normal mucosa by biopsy forceps. Normal colon mucosal and adenoma or adenocarcinoma tissues were collected from the same patient. Standard biopsy forceps (Olympus Medical Systems Corporation, Tokyo, Japan) were used to obtain paired mucosal pinch biopsy specimens from the colon. 28, 10 and 6 tissue samples were acquired from normal, polyp and cancer tissues, respectively. The tissues were placed in sterile specimen bottles containing PBS. Half of the normal tissue samples were treated with EDTA (1 M) for 40 minutes. Then, the tissue samples were stained with 20 μM ACCu2 in artificial spinal fluid for 1-2 hours at 37.8° C. and then imaged.
# As a result, clinical important images were obtained at depths of 90-190 μm in the mucosal and submucosal layers, as shown in FIG. 11(a).
# [5] = one-photon, excitation 373 nm, EtOH/HEPES (9:1, pH 7.0)
# [6] = EDTA-treated normal colon tissue
structure (smiles),measurement,setting,value
COCCOCCOCCOc1ccc2c(ccc3cc(C(=O)N4CCN(C(=O)c5ccc(CNC(=O)c6cc7cc8ccc(N(C)C)cc8cc7oc6=O)nc5)CC4)c(=O)oc32)c1 [ACCu2],φ (fluorescence quantum yield),"[1]; 1,4-Dioxane (0.164)",0.75
same,red shift in the emission spectra with solvent polarity,"[1]; 1,4-dioxane to H2O",69 nm
same,φ (fluorescence quantum yield),[1]; DMF (0.386),0.54
same,φ (fluorescence quantum yield),[1]; EtOH (0.654),0.34
same,φ (fluorescence quantum yield),[1]; EtOH/HEPES (9:1),0.22
same,energy transfer efficiency (ETE),"[1]; FRET from IR to FL moiety, excitation at 373 nm, Equation (1)",93.4%
same,φ (fluorescence quantum yield),"[1]; HEPES buffer 20 mM, pH 7.0",0.0028
same,antenna effect,"[1]; TP mode, 750 nm vs direct excitation 880 nm",3.1
same,antenna effect,"[1]; one-photon (OP) mode, 373 nm vs direct excitation 461 nm",3.0
same,λmax^abs,"[1]; 1,4-Dioxane (0.164)",380/437
same,λmax^abs,[1]; DMF (0.386),371/456
same,λmax^abs,[1]; EtOH (0.654),379/460
same,λmax^abs,[1]; EtOH/HEPES (9:1),379/465
same,λmax^abs,"[1]; HEPES buffer 20 mM, pH 7.0",380/453
same,λmax^t1,"[1]; 1,4-Dioxane (0.164)",533 nm
same,λmax^t1,[1]; DMF (0.386),577 nm
same,λmax^t1,[1]; EtOH (0.654),578 nm
same,λmax^t1,[1]; EtOH/HEPES (9:1),585 nm
same,λmax^t1,"[1]; HEPES buffer 20 mM, pH 7.0",602 nm
same,decrease of area of blue emission (400-450 nm) from that of IR,[1]; [5],9.2 fold
same,increase of area of red emission (550-650 nm) from that of FL,[1]; [5],3.4 fold
same,decrease of blue emission,[1]; two-photon (TP) mode,13 fold
same,increase of red emission,[1]; two-photon (TP) mode,3.1 fold
same,pH at which Ired/Iblue ratio shows a minimum,[2],6-7
same,viability of HeLa cells,HeLa cells [3],did not affect the viability of HeLa cells
same,photostability: TPEF intensity after continuous radiation,HeLa cells [4],remained nearly the same
same,copper(II) ion concentration,human colon tissue; [6],0.0 ± 0.1 µM
same,average Ired/Iblue ratio,human colon tissue; [6],10.0±0.3
same,copper(II) ion concentration,human colon tissue; cancer colon tissue,22 ± 3 µM
same,average Ired/Iblue ratio,human colon tissue; cancer colon tissue,5.2±0.6
same,copper(II) ion concentration,human colon tissue; normal colon tissue,8.2 ± 0.3 µM
same,average Ired/Iblue ratio,human colon tissue; normal colon tissue,8.3±0.4
same,copper(II) ion concentration,human colon tissue; polyp colon tissue,13 ± 2 µM
same,average Ired/Iblue ratio,human colon tissue; polyp colon tissue,7.2±0.5
